The test concerns Staphylococcus aureus. Nature of the test: Antibacterial activity against Staphylococcus aureus measured every 10 mins for 8 hrs by liquid culture growth inhibition assay. Format: functional.

This note sets out measurements from ChEMBL document CHEMBL3758113, “Stelliosphaerols A and B, Sesquiterpene-Polyol Conjugates from an Ecuadorian Fungal Endophyte” (2015).

Broadly, the MIC is the smallest concentration in the dilution series that meets the test's criterion for growth inhibition. A high value points to weaker potency.

In brackets after ≈: the same amount, converted by molar mass.

For the molecule `CC1=CCC[C@@H](C)[C@]1(C)CC/C(C)=C/CO[C@@H]([C@H](O)[C@H](O)CO)[C@H](O)CO`, the minimal inhibitory concentration (MIC) came out at 250 µg/mL (≈ 647 µM).
To `CC1=CCC[C@@H](C)[C@]1(C)CC/C(=C/CO[C@@H]([C@H](O)[C@H](O)CO)[C@H](O)CO)CO` belongs 250 µg/mL (≈ 621 µM).
